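Where inhibition never reached the appropriate level, the endpoint shown equals the highest concentration tested. Otherwise, values were interpolated linearly from a five-concentration, 48-hour dose response in 96-well plates. TGI: total growth inhibition.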
Experiments:
Assay in all cases: NCI tumour cell line growth inhibition, 48 h
786-0 renal = tested on: 786-0 renal
A498 renal = tested on: A498 renal
A549 NSCLC = tested on: A549 NSCLC
ACHN renal = tested on: ACHN renal
CCRF-CEM leukemia = tested on: CCRF-CEM leukemia
COLO 205 colon = tested on: COLO 205 colon
DLD-1 colon = tested on: DLD-1 colon
DMS 114 small cell lung = tested on: DMS 114 small cell lung
DMS 273 small cell lung = tested on: DMS 273 small cell lung
EKVX NSCLC = tested on: EKVX NSCLC
HCT-116 colon = tested on: HCT-116 colon
HCT-15 colon = tested on: HCT-15 colon
HL-60(TB) leukemia = tested on: HL-60(TB) leukemia
HOP-18 NSCLC = tested on: HOP-18 NSCLC
HOP-62 NSCLC = tested on: HOP-62 NSCLC
HOP-92 NSCLC = tested on: HOP-92 NSCLC
HT29 colon = tested on: HT29 colon
IGROV1 ovarian = tested on: IGROV1 ovarian
K-562 leukemia = tested on: K-562 leukemia
KM12 colon = tested on: KM12 colon
KM20L2 colon = tested on: KM20L2 colon
LOX IMVI melanoma = tested on: LOX IMVI melanoma
LXFL 529 NSCLC = tested on: LXFL 529 NSCLC
M14 melanoma = tested on: M14 melanoma
M19-MEL melanoma = tested on: M19-MEL melanoma
MOLT-4 leukemia = tested on: MOLT-4 leukemia
NCI-H226 lung = tested on: NCI-H226 lung
NCI-H23 lung = tested on: NCI-H23 lung
NCI-H460 lung = tested on: NCI-H460 lung
NCI-H522 lung = tested on: NCI-H522 lung
OVCAR-4 ovarian = tested on: OVCAR-4 ovarian
OVCAR-5 ovarian = tested on: OVCAR-5 ovarian
OVCAR-8 ovarian = tested on: OVCAR-8 ovarian
RPMI-8226 leukemia = tested on: RPMI-8226 leukemia
RXF 393 renal = tested on: RXF 393 renal
SF-268 CNS = tested on: SF-268 CNS
SF-295 CNS = tested on: SF-295 CNS
SF-539 CNS = tested on: SF-539 CNS
SK-MEL-28 melanoma = tested on: SK-MEL-28 melanoma
SK-MEL-5 melanoma = tested on: SK-MEL-5 melanoma
SN12C renal = tested on: SN12C renal
SNB-19 CNS = tested on: SNB-19 CNS
SNB-75 CNS = tested on: SNB-75 CNS
SNB-78 CNS = tested on: SNB-78 CNS
SR leukemia = tested on: SR leukemia
SW-620 colon = tested on: SW-620 colon
U251 CNS = tested on: U251 CNS
UACC-257 melanoma = tested on: UACC-257 melanoma
UACC-62 melanoma = tested on: UACC-62 melanoma
CAKI-1 renal = tested on: CAKI-1 renal
HCC-2998 colon = tested on: HCC-2998 colon
MALME-3M melanoma = tested on: MALME-3M melanoma
OVCAR-3 ovarian = tested on: OVCAR-3 ovarian
SK-MEL-2 melanoma = tested on: SK-MEL-2 melanoma
SK-OV-3 ovarian = tested on: SK-OV-3 ovarian
TK-10 renal = tested on: TK-10 renal
UO-31 renal = tested on: UO-31 renal

Measured: TGI

Cn1nc(-c2cccc(-c3nn(C)c(=NCCO)s3)n2)sc1=NCCO
> 100 µM: 786-0 renal | A498 renal | A549 NSCLC | ACHN renal | CCRF-CEM leukemia | COLO 205 colon | DLD-1 colon | DMS 114 small cell lung | DMS 273 small cell lung | EKVX NSCLC | HCT-116 colon | HCT-15 colon | HL-60(TB) leukemia | HOP-18 NSCLC | HOP-62 NSCLC | HOP-92 NSCLC | HT29 colon | IGROV1 ovarian | K-562 leukemia | KM12 colon | KM20L2 colon | LOX IMVI melanoma | LXFL 529 NSCLC | M14 melanoma | M19-MEL melanoma | MOLT-4 leukemia | NCI-H226 lung | NCI-H23 lung | NCI-H460 lung | NCI-H522 lung | OVCAR-4 ovarian | OVCAR-5 ovarian | OVCAR-8 ovarian | RPMI-8226 leukemia | RXF 393 renal | SF-268 CNS | SF-295 CNS | SF-539 CNS | SK-MEL-28 melanoma | SK-MEL-5 melanoma | SN12C renal | SNB-19 CNS | SNB-75 CNS | SNB-78 CNS | SR leukemia | SW-620 colon | U251 CNS | UACC-257 melanoma | UACC-62 melanoma

C[C@@H](O)CCC(=O)c1ccoc1
> 100 µM: 786-0 renal | A498 renal | A549 NSCLC | ACHN renal | CAKI-1 renal | CCRF-CEM leukemia | COLO 205 colon | DLD-1 colon | DMS 114 small cell lung | DMS 273 small cell lung | EKVX NSCLC | HCC-2998 colon | HCT-116 colon | HCT-15 colon | HL-60(TB) leukemia | HOP-18 NSCLC | HOP-62 NSCLC | HOP-92 NSCLC | HT29 colon | IGROV1 ovarian | K-562 leukemia | KM12 colon | KM20L2 colon | LOX IMVI melanoma | LXFL 529 NSCLC | M14 melanoma | M19-MEL melanoma | MALME-3M melanoma | MOLT-4 leukemia | NCI-H226 lung | NCI-H23 lung | NCI-H460 lung | NCI-H522 lung | OVCAR-3 ovarian | OVCAR-4 ovarian | OVCAR-5 ovarian | OVCAR-8 ovarian | RPMI-8226 leukemia | RXF 393 renal | SF-268 CNS | SF-295 CNS | SF-539 CNS | SK-MEL-2 melanoma | SK-MEL-28 melanoma | SK-MEL-5 melanoma | SK-OV-3 ovarian | SN12C renal | SNB-19 CNS | SNB-75 CNS | SNB-78 CNS | SR leukemia | SW-620 colon | TK-10 renal | U251 CNS | UACC-257 melanoma | UACC-62 melanoma | UO-31 renal

Source: PubChem BioAssay (NCI)
